Measured values from patent US20250136568A1, “FUSED HETEROCYCLIC COMPOUNDS AS PI3KALPHA INHIBITORS” (Nanjing Zenshine Pharmaceuticals Co., Ltd., priority 2021, published 2025).
Like-named read-outs stand apart in the source and are kept apart here.

Columns and labels:
Assay type in all cases: cell-based
[1] = tested on: PI3Kα wide type cell line SK-BR-3; assay: Cell Proliferation IC50 Assay (CellTiter-Glo), SK-BR-3; details: Homo sapiens; SK-BR-3 (PI3Kα wild type), 72 hours, CellTiter-Glo; read-out: IC50 (μM) SK-BR-3
Source text: (§1) PI3Kα H1047R mutation cell line T-47D and MDA-MB-453, E545K mutation cell line MDA-MB-361 and PI3Kα wide type cell line SK-BR-3 were purchased from Cobioer Biotech (cat. no CBP60397, CBP60386, CBP60383 and CBP60413 respectively). The CellTiter-Glo Direct Cell Proliferation Assay Kit was purchased from Prornega (cat. No. G7573)
(§2) For cell proliferation assay in each cell line: • a. Prepare complete medium (R PMI 1640, DMEM or McCoys): Add FBS and appropriate additives according to the information sheet provided by the vendor. Mix gently. • b. Prepare single cell suspension and count the cell numbers and adjust cells to appropriate density. • c. Add 80 μL of cell suspension to 96-well opaque-walled clear bottom plates according to the planned plate layout and place the plates in the CO2 incubator overnight. • d. Prepare intermediate plate: 10 μl of diluted test compounds or staurosporine solution (200×) is added to a 96 deep well plate. Then 390 μl of culture medium without FBS is added to the respective wells. • e. Transfer 20 μL of the solutions from the above intermediate plate to the wells of the plate prepared containing 80 μL of the culture medium and cells. The total dilution is 200 folds. • f. The cells were then incubated at 5% CO2, 37° C. for 72 hours. • g. Equilibrate the plate and its contents to room temperature for approximately 30 minutes. • h. Add 100 μL of CellTiter-Glo reagent to the assay plate • i. Mix contents for 10 minutes on an orbital shaker to induce cell lysis. • j. Allow the plate to incubate at room temperature for 10 minutes to stabilize luminescent signal, • k. Paste the clear bottom with white back seal and record luminescence with Varioskan LUX plate reader.
(§3) Inhibition % and IC50 value were calculated by the formula described below: […]

[2] = tested on: PI3Kα H1047R mutation cell line MDA-MB-453; assay: Cell Proliferation IC50 Assay (CellTiter-Glo), MDA-MB-453; details: Homo sapiens; MDA-MB-453 (H1047R), 72 hours, CellTiter-Glo; read-out: IC50 (μM) MDA-MB-453
Source text: as §1, §2, §3

[3] = tested on: PI3Kα H1047R mutation cell line T-47D; assay: Cell Proliferation IC50 Assay (CellTiter-Glo), T-47D; details: Homo sapiens, T47D (H1047R), 72 hours, CellTiter-Glo, read-out: IC50 (μM) T47D
Source text: as §1, §2, §3

IC50 [1] | IC50 [2] | IC50 ([3]; T47D, 72 h) | SMILES | IC50 [3]
> 10 µM | 0.87 µM | – | Cc1cc(C(C)Nc2ccccc2C(=O)O)c2oc(-c3ccc4nn(C)c(C)c4c3)cc(=O)c2c1 (centres unmarked) [Example 111, 2-((1-(2-(2,3-dimethyl-2H-indazol-5-yl)-6-methyl-4-oxo-4H-chromen-8-yl)ethyl)amino)benzoic acid] | –
> 10 µM | > 10 µM | – | Cc1cc(C(C)Nc2ccccc2C(=O)O)c2oc(C3CCC(c4ccccc4)CC3)c(C)c(=O)c2c1 (centres unmarked) [Example 130, 2-((1-(3,6-dimethyl-4-oxo-2-(4-phenylcyclohexyl)-411-chromen-8-yl)ethyl)amino)benzoic acid] | –
> 10 µM | 2.48 µM | – | Cc1cc(C(C)Nc2ccccc2C(=O)O)c2oc(-c3ccc4cn(C)nc4c3)cc(=O)c2c1 (centres unmarked) [Example 51, 2-((1-(6-methyl-2-(2-methyl-211-indazol-6-yl)-4-oxo-4H-chromen-8-yl)ethyl)amino)benzoic acid] | –
> 10 µM | 0.27 µM | – | COCCn1cc2cc(-c3cc(=O)c4cc(C)cc(C(C)Nc5ccccc5C(=O)O)c4o3)ccc2n1 (centres unmarked) [Example 58, 2-((1-(2-(2-(2-methoxyethyl)-211-indazol-5-yl)-6-methyl-4-oxo-4H-chromen-8-yl)ethyl)amino)benzoic acid] | –
> 10 µM | 0.56 µM | – | Cc1cc([C@@H](C)Nc2ccccc2C(=O)O)c2oc(-c3ccnc(C(=O)N(C)C)c3)c(C)c(=O)c2c1 [Example 134, (R)-2-((1-(2-(2-(dimethylcarbamoyl)pyridin-4-yl)-3,6-dimethyl-4-oxo-4H-chromen-8-yl)ethyl)amino)benzoic acid] | –
> 10 µM | 0.74 µM | – | Cc1cc(C(C)Nc2ccccc2C(=O)O)c2oc(-c3cncs3)cc(=O)c2c1 (centres unmarked) [Example 27, 2-((1-(6-methyl-4-oxo-2-(thiazol-5-yl)-4H-chromen-8-yl)ethyl)amino)benzoic acid] | –
> 10 µM | 6 µM | – | Cc1cc(C(C)Nc2ccccc2C(=O)O)c2oc(-c3ccc4ncn(C)c4c3)cc(=O)c2c1 (centres unmarked) [Example 60, 2-((1-(6-methyl-2-(1-methyl-1H-benzo[d]imidazol-6-yl)-4-oxo-4H-chromen-8-yl)ethyl)amino)benzoic acid] | –
> 10 µM | 0.16 µM | – | Cc1cc(C(C)Nc2ccccc2C(=O)O)c2oc(-c3ccc(CN4CCOCC4)cc3)c(C)c(=O)c2c1 (centres unmarked) [Example 128, 2-((1-(3,6-dimethyl-2-(4-(morpholinomethyl)phenyl)-4-oxo-4H-chromen-8-yl)ethyl)amino)benzoic acid] | –
> 10 µM | 1.18 µM | – | Cc1cc([C@@H](C)Nc2ccccc2C(=O)O)c2oc(-c3ccnc(N4CCOCC4)c3)c(C)c(=O)c2c1 [Example 133, (R)-2-((1-(3,6-dimethyl-2-(2-morpholinopyridin-4-yl)-4-oxo-411-chromen-8-yl)ethyl)amino)benzoic acid] | –
> 10 µM | 0.4 µM | – | Cc1cc(C(C)Nc2ccccc2C(=O)O)c2oc(C3CCN(c4cccnc4)CC3)c(C)c(=O)c2c1 (centres unmarked) [Example 125, 2-((1-(3,6-dimethyl-4-oxo-2-(1-(pyridin-3-yl)piperidin-4-yl)-4H-chromen-8-yl)ethyl)amino)benzoic acid] | –
> 10 µM | 0.2 µM | – | Cc1cc(C(C)Nc2ccccc2C(=O)O)c2oc(-c3ccc(N4CCOC(C)C4)cc3)cc(=O)c2c1 (centres unmarked) [Example 67, 2-((1-(6-methyl-2-(4-(2-methylmorpholino)phenyl)-4-oxo-4H-chromen-8-yl)ethyl)amino)benzoic acid] | –
> 10 µM | – | 1.04 µM | CC(=O)N1CCN(C(=O)c2ccc(-c3oc4c([C@@H](C)Nc5ccccc5C(=O)O)cc(C)cc4c(=O)c3C)cc2)CC1 [Example 139, (R)-2-((1-(2-(4-(4-acetylpiperazine-1-carbonyl)phenyl)-3,6-dimethyl-4-oxo-4H-chromen-8-yl)ethyl)amino)benzoic acid] | –
> 10 µM | – | 0.13 µM | Cc1cc([C@@H](C)Nc2ccccc2C(=O)O)c2oc(-c3ccc(CN4CCN(C)CC4)nc3)c(C)c(=O)c2c1 [Example 188, (R)-2-((1-(3,6-dimethyl-2-(6-((4-methylpiperazin-1-yl)methyl)pyridin-3-yl)-4-oxo-4H-chromen-8-yl)ethyl)amino)benzoic acid] | –
6.05 µM | – | 0.27 µM | COC(=O)c1ccccc1N[C@H](C)c1cc(C)cc2c(=O)c(C)c(-c3ccc(-c4cnn(C)c4)nc3)oc12 [Example 190, methyl (R)-2-((1-(3,6-dimethyl-2-(6-(1-methyl-1H-pyrazol-4-yl)pyridin-3-yl)-4-oxo-4H-chromen-8-yl)ethyl)amino)benzoate] | –
> 10 µM | – | 0.46 µM | Cc1cc(C(C)Nc2cccnc2C(=O)O)c2oc(-c3ccc4nn(C)cc4c3)cc(=O)c2c1 (centres unmarked) [Example 114, 3-((1-(6-methyl-2-(2-methyl-21-indazol-5-yl)-4-oxo-4H-chromen-8-yl)ethyl)amino)picolinic acid] | –
> 10 µM | – | 0.29 µM | CC(=O)N1CCN(c2ccc(-c3oc4c([C@@H](C)Nc5ccccc5C(=O)O)cc(C)cc4c(=O)c3C)cn2)CC1 [Example 153, (R)-2-((1-(2-(6-(4-acetylpiperazin-1-yl)pyridin-3-yl)-3,6-dimethyl-4-oxo-4H-chromen-8-yl)ethyl)amino)benzoic acid] | –
> 10 µM | – | 6.9 µM | Cc1cc(C(C)Nc2ccccc2C(=O)O)c2oc(-c3cnc(N4CCOCC4)nc3)cc(=O)c2c1 (centres unmarked) [Example 152, 2-((1-(6-methyl-2-(2-morpholinopyrimidin-5-yl)-4-oxo-4H-chromen-8-yl)ethyl)amino)benzoic acid] | –
> 10 µM | – | 2.56 µM | Cc1cc(C(C)Nc2ccccc2C(=O)O)c2oc(C3CCN(C(C)C(F)(F)F)CC3)cc(=O)c2c1 (centres unmarked) [Example 16, 2-((1-(6-methyl-4-oxo-2-(1-(1,1,1-trifluoropropan-2-yl)piperidin-4-yl)-4H-chromen-8-yl)ethyl)amino)benzoic acid] | –
> 10 µM | – | 0.31 µM | Cc1cc(C(C)Nc2ccccc2-c2nc(=O)o[nH]2)c2oc(-c3ccc4nn(C)cc4c3)c(C)c(=O)c2c1 (centres unmarked) [Example 177, 3-(2-((1-(3,6-dimethyl-2-(2-methyl-2H-indazol-5-yl)-4-oxo-4H-chromen-8-yl)ethyl)amino)phenyl)-1,2,4-oxadiazol-5(2H)-one] | –
> 10 µM | – | 0.38 µM | Cc1cc([C@@H](C)Nc2ccccc2C(=O)O)c2oc(-c3ccc(-c4cnn(C)c4)nc3)cc(=O)c2c1 [Example 164, (R)-2-((1-(6-methyl-2-(6-(1-methyl-1H-pyrazol-4-yl)pyridin-3-yl)-4-oxo-4H-chromen-8-yl)ethyl)amino)benzoic acid] | –
> 10 µM | – | 0.043 µM | Cc1cc([C@@H](C)Nc2ccccc2C(=O)O)c2oc(-c3ccc(CCN4CCOCC4)cc3)c(C)c(=O)c2c1 [Example 142, (R)-2-((1-(3,6-dimethyl-2-(4-(2-morpholinoethyl)phenyl)-4-oxo-4H-chromen-8-yl)ethyl)amino)benzoic acid] | –
> 10 µM | – | 0.41 µM | CC(=O)N1CCN(c2ccc(-c3oc4c(C(C)Nc5ccccc5S(N)(=O)=O)cc(C)cc4c(=O)c3C)cc2)CC1 (centres unmarked) [Example 159, 2-((1-(2-(4-(4-acetylpiperazin-1-yl)phenyl)-3,6-dimethyl-4-oxo-4H-chromen-8-yl)ethyl)amino)benzenesulfonamide] | –
> 10 µM | – | 0.28 µM | Cc1cc(C(C)Nc2ccccc2C(=O)O)c2oc(-c3ccc(N4CCC(F)(F)CC4)cc3)cc(=O)c2c1 (centres unmarked) [Example 43, 2-((1-(2-(4-(4,4-difluoropiperidin-1-yl)phenyl)-6-methyl-4-oxo-4H-chromen-8-yl)ethyl)amino)benzoic acid] | –
> 10 µM | – | 2.01 µM | Cc1cc(C(C)Nc2ccccc2C(=O)O)c2oc(-c3cc4n(n3)CCN(C)C4=O)c(C)c(=O)c2c1 (centres unmarked) [Example 73, 2-((1-(3,6-dimethyl-2-(5-methyl-4-oxo-4,5,6,7-tetrahydropyrazolo[1,5-a]pyrazin-2-yl)-4-oxo-4H-chromen-8-yl)ethyl)amino)benzoic acid] | –

SMILES | IC50 [1] | IC50 [2] | IC50 ([3]; T47D, 72 h) | IC50 [3]
CC(=O)N1CCN(c2ccc(-c3oc4c([C@@H](C)Nc5ccccc5C(=O)O)cc(C)cc4c(=O)c3C)nc2)CC1 [Example 115, (R)-2-((1-(2-(5-(4-acetylpiperazin-1-yl)pyridin-2-yl)-3,6-dimethyl-4-oxo-4H-chromen-8-yl)ethyl)amino)benzoic acid] | 3.43 µM | – | – | 0.074 µM
